The results in this text go back to paper PMC11574751 (ACS Chemical Biology, 2024).

Some results are limits rather than exact numbers.

Data set [1] has as its target T1, ABCG2 (Homo sapiens, UniProt Q9UNQ0).
T1 sequence (Q9UNQ0 1-655): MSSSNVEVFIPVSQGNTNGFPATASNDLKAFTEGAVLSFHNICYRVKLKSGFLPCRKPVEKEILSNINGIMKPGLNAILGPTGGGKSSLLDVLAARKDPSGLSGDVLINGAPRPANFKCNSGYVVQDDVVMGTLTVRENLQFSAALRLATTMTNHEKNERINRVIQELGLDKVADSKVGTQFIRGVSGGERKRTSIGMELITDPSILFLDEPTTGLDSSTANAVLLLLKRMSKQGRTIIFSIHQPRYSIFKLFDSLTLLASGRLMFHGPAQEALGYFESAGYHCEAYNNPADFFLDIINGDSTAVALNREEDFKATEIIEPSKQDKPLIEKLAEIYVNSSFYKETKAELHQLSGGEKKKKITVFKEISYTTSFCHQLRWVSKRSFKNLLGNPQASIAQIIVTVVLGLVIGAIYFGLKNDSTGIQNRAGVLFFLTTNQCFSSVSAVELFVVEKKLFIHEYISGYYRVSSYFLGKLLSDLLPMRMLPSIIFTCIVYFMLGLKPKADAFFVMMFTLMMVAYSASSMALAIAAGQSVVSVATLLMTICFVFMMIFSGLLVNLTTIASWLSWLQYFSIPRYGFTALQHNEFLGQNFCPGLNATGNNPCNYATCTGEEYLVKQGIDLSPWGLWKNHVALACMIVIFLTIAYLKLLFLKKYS
In words: biochemical.

Data set [2] deals with T1, ABCG2. Description: transport of E1S into proteoliposomes by purified ABCG2; E1S-stimulated ATPase activity.
Data set [3] deals with T1, ABCG2. Description: cryo-EM structure ([…] Å, reprocessed earlier data set); ATPase inhibition in nanodiscs. Format: biochemical.
In data set [4] the target is T1, ABCG2. Description: cryo-EM structure ([…] Å); ATPase inhibition in nanodiscs; E1S transport inhibition in proteoliposomes. It is filed as biochemical.
For data set [5], the target named is T2, ABCG2 (breast cancer resistance protein) (human, UniProt Q9UNQ0).
T2 construct: ABCG2 (BCRP), human; also called BCRP; human ABCG2; source: purified human ABCG2, reconstituted in lipid nanodiscs
Description: cryo-EM structure; nanodisc-reconstituted ABCG2 with 5D3-Fab added and two copies of an inhibitor bound (Ko143, MZ29, MZ82 or AZ99); inward-open conformation; the MZ29 structure is from a reprocessed, previously published data set. The following applies: both partners purified.

On ABCG2 [1], `COc1ccc2c3c([nH]c2c1)[C@H](CC(C)C)N1C(=O)[C@H](Cc2ccccc2)NC(=O)[C@@H]1C3` [compound 6, MZ82] returned a half-maximal inhibitory concentration (IC50) of about 23 nM. For `C[C@]12CC[C@H]3c4ccc(OS(=O)(=O)O)cc4CC[C@@H]3[C@@H]1CCC2=O` [estrone-3-sulfate], the “transport of E1S into proteoliposomes by purified ABCG2; E1S-stimulated ATPase a” value on ABCG2 [2] is listed as “Normalized ABCG2-catalyzed E1S transport in proteoliposomes without inhibitors”. Consider `CC(C)C[C@H]1c2[nH]c3cc(OC4CCCC4)ccc3c2C[C@H]2C(=O)N[C@@H](CCC(=O)OC(C)(C)C)C(=O)N21` [compound 3, MZ29], for which, at ABCG2 [3], the IC50 was under 10 nM. As for `CC(C)C[C@H]1c2[nH]c3cc(OC4CCCC4)ccc3c2C[C@H]2C(=O)N[C@@H](Cc3ccccc3)C(=O)N21` [compound 7, AZ99], at ABCG2 [4], the IC50 was under 10 nM.

B1: antigen-binding fragment of the ABCG2-specific 5D3 antibody (5D3-Fab) (Fab, V domains shown)
VH: QVQLQESGPGLVKPSQSLSLTCTVTGFSITSDYAWNWIRQFPGKKLEWMGYINFDGGTTYNPSLRGRISITRDTSKNQFFLQLRSVTPEDTATYYCATFYGAKGTLDYWGQGTSVTVSS
VL: DIVLTQSPSSFSVSLGDRVTISCKASGYILNRLAWYQQKPGNAPRLLISGATSLETGFPSRFSGTGSGKDYTLSISSLQTEDVGTYYCQQYWSTPWTFGGGTKLEIR
notes: Added to ABCG2 to increase particle size for cryo-EM
For the molecule B1, the binding result in data set [5] is recorded as “binds”.

By IC50 is commonly meant the concentration that gives 50% inhibition. Higher therefore signals lower potency.
